# Reference: ChEMBL document CHEMBL1240372, “Murine model of a disseminated infection by the novel fungus Fonsecaea monophora and successful treatment with posaconazole” (Antimicrob Agents Chemother, 2010)
# Active and inactive are the calls of the source. No cut-off for these calls is given here.
# Key:
# Fonsecaea monophora [1] = test: Antifungal activity against Fonsecaea monophora CBS 269.37; format: functional
# Fonsecaea monophora [2] = test: Antifungal activity against Fonsecaea monophora CBS 117236; format: functional
# Fonsecaea monophora [3] = test: Antifungal activity against 1 x 10^6 CFU Fonsecaea monophora CBS 269.37 infected in OF1 mouse assessed as increase in mouse survival at 1.5 mg/kg, ip qd administered 1 day after infection for 7 days; format: functional, organism-based; design: dose 1.5 mg/kg
# Fonsecaea monophora [4] = test: Antifungal activity against 2 x 10^5 CFU Fonsecaea monophora CBS 117236 infected in […] OF1 mouse assessed as reduction in fungal load in spleen at 1.5 mg/kg, ip qd administered 1 day after infection for 7 days; format: functional, organism-based; design: dose 1.5 mg/kg
# Fonsecaea monophora [5] = test: Antifungal activity against 2 x 10^5 CFU Fonsecaea monophora CBS 117236 infected in […] OF1 mouse assessed as reduction in fungal load in kidney at 1.5 mg/kg, ip qd administered 1 day after infection for 7 days; format: functional, organism-based; design: dose 1.5 mg/kg
# Fonsecaea monophora [6] = test: Antifungal activity against 2 x 10^5 CFU Fonsecaea monophora CBS 117236 infected in […] OF1 mouse assessed as reduction in fungal load in lung at 1.5 mg/kg, ip qd administered 1 day after infection for 7 days; format: functional, organism-based; design: dose 1.5 mg/kg
# Fonsecaea monophora [7] = test: Antifungal activity against 1 x 10^6 CFU Fonsecaea monophora CBS 269.37 infected in […] OF1 mouse assessed as reduction in fungal load in spleen at 1.5 mg/kg, ip qd administered 1 day after infection for 7 days; format: functional, organism-based; design: dose 1.5 mg/kg
# Fonsecaea monophora [8] = test: Antifungal activity against 1 x 10^6 CFU Fonsecaea monophora CBS 269.37 infected in […] OF1 mouse assessed as reduction in fungal load in kidney at 1.5 mg/kg, ip qd administered 1 day after infection for 7 days; format: functional, organism-based; design: dose 1.5 mg/kg
# Fonsecaea monophora [9] = test: Antifungal activity against 1 x 10^6 CFU Fonsecaea monophora CBS 269.37 infected in […] OF1 mouse assessed as reduction in fungal load in lung at 1.5 mg/kg, ip qd administered 1 day after infection for 7 days; format: functional, organism-based; design: dose 1.5 mg/kg
# [10] = Drug level in 1 x 10^6 CFU Fonsecaea monophora CBS 269.37 infected OF1 mouse serum at 1.5 mg/kg, ip qd administered 1 day after infection measured on day 6 after 4 hrs of last treatment; format: ADME, organism-based; design: dose 1.5 mg/kg, route intraperitoneal; conditions: read-out: Drug uptake
# Fonsecaea monophora [11] = test: Antifungal activity against 1 x 10^6 CFU Fonsecaea monophora CBS 269.37 infected in OF1 mouse assessed as increase in mouse survival at 20 mg/kg, po qd administered 1 day after infection for 7 days; format: functional, organism-based; design: dose 20 mg/kg
# Fonsecaea monophora [12] = test: Antifungal activity against 1 x 10^6 CFU Fonsecaea monophora CBS 269.37 infected in OF1 mouse assessed as increase in mouse survival at 40 mg/kg, po qd administered 1 day after infection for 7 days; format: functional, organism-based; design: dose 40 mg/kg
# Fonsecaea monophora [13] = test: Antifungal activity against 2 x 10^5 CFU Fonsecaea monophora CBS 117236 infected in OF1 mouse assessed as increase in mouse survival at 20 mg/kg, po qd administered 1 day after infection for 7 days; format: functional, organism-based; design: dose 20 mg/kg
# Fonsecaea monophora [14] = test: Antifungal activity against 2 x 10^5 CFU Fonsecaea monophora CBS 117236 infected in OF1 mouse assessed as increase in mouse survival at 40 mg/kg, po qd administered 1 day after infection for 7 days; format: functional, organism-based; design: dose 40 mg/kg
# Fonsecaea monophora [15] = test: Antifungal activity against 2 x 10^5 CFU Fonsecaea monophora CBS 117236 infected in OF1 mouse assessed as increase in mouse survival at 10 mg/kg, po qd administered 1 day after infection for 7 days; format: functional, organism-based; design: dose 10 mg/kg
# Fonsecaea monophora [16] = test: Antifungal activity against 1 x 10^6 CFU Fonsecaea monophora CBS 269.37 infected in po dosed OF1 mouse assessed as reduction in fungal load in spleen compound administered qd 1 day after infection for 7 days; format: functional, organism-based
# Fonsecaea monophora [17] = test: Antifungal activity against 1 x 10^6 CFU Fonsecaea monophora CBS 269.37 infected in po dosed OF1 mouse assessed as reduction in fungal load in kidney compound administered qd 1 day after infection for 7 days; format: functional, organism-based
# Fonsecaea monophora [18] = test: Antifungal activity against 1 x 10^6 CFU Fonsecaea monophora CBS 269.37 infected in po dosed OF1 mouse assessed as reduction in fungal load in brain compound administered qd 1 day after infection for 7 days; format: functional, organism-based
# Fonsecaea monophora [19] = test: Antifungal activity against 1 x 10^6 CFU Fonsecaea monophora CBS 269.37 infected in po dosed OF1 mouse assessed as reduction in fungal load in lung compound administered qd 1 day after infection for 7 days; format: functional, organism-based
# Fonsecaea monophora [20] = test: Antifungal activity against 2 x 10^5 CFU Fonsecaea monophora CBS 117236 infected in po dosed OF1 mouse assessed as reduction in fungal load in spleen compound administered qd 1 day after infection for 7 days; format: functional, organism-based
# Fonsecaea monophora [21] = test: Antifungal activity against 2 x 10^5 CFU Fonsecaea monophora CBS 117236 infected in po dosed OF1 mouse assessed as reduction in fungal load in kidney compound administered qd 1 day after infection for 7 days; format: functional, organism-based
# Fonsecaea monophora [22] = test: Antifungal activity against 2 x 10^5 CFU Fonsecaea monophora CBS 117236 infected in po dosed OF1 mouse assessed as reduction in fungal load in brain compound administered qd 1 day after infection for 7 days; format: functional, organism-based
# Fonsecaea monophora [23] = test: Antifungal activity against 2 x 10^5 CFU Fonsecaea monophora CBS 117236 infected in po dosed OF1 mouse assessed as reduction in fungal load in lung compound administered qd 1 day after infection for 7 days; format: functional, organism-based
# Fonsecaea monophora [24] = test: Antifungal activity against 2 x 10^5 CFU Fonsecaea monophora CBS 117236 infected in OF1 mouse assessed as increase in mouse body weight at 10 mg/kg, po qd administered 1 day after infection for 7 days; format: functional, organism-based; design: dose 10 mg/kg
# Fonsecaea monophora [25] = test: Antifungal activity against 2 x 10^5 CFU Fonsecaea monophora CBS 117236 infected in OF1 mouse assessed as increase in mouse body weight at 20 mg/kg, po qd administered 1 day after infection for 7 days; format: functional, organism-based; design: dose 20 mg/kg
# [26] = Drug level in 1 x 10^6 CFU Fonsecaea monophora CBS 269.37 infected OF1 mouse serum at 10 mg/kg, po qd administered 1 day after infection measured on day 6 after 4 hrs of last treatment; format: ADME, organism-based; design: dose 10 mg/kg, route oral; conditions: read-out: Drug uptake
# [27] = Drug level in 1 x 10^6 CFU Fonsecaea monophora CBS 269.37 infected OF1 mouse serum at 20 mg/kg, po qd administered 1 day after infection measured on day 6 after 4 hrs of last treatment; format: ADME, organism-based; design: dose 20 mg/kg, route oral; conditions: read-out: Drug uptake
# [28] = Drug level in 1 x 10^6 CFU Fonsecaea monophora CBS 269.37 infected OF1 mouse serum at 40 mg/kg, po qd administered 1 day after infection measured on day 6 after 4 hrs of last treatment; format: ADME, organism-based; design: dose 40 mg/kg, route oral; conditions: read-out: Drug uptake
# [29] = Drug level in 1 x 10^6 CFU Fonsecaea monophora CBS 269.37 infected OF1 mouse brain at 10 mg/kg, po qd administered 1 day after infection measured on day 6 after 4 hrs of last treatment; format: ADME, organism-based; design: dose 10 mg/kg, route oral; conditions: read-out: Drug uptake
# [30] = Drug level in 1 x 10^6 CFU Fonsecaea monophora CBS 269.37 infected OF1 mouse brain at 20 mg/kg, po qd administered 1 day after infection measured on day 6 after 4 hrs of last treatment; format: ADME, organism-based; design: dose 20 mg/kg, route oral; conditions: read-out: Drug uptake
# [31] = Drug level in 1 x 10^6 CFU Fonsecaea monophora CBS 269.37 infected OF1 mouse brain at 40 mg/kg, po qd administered 1 day after infection measured on day 6 after 4 hrs of last treatment; format: ADME, organism-based; design: dose 40 mg/kg, route oral; conditions: read-out: Drug uptake
# Fonsecaea monophora [32] = test: Antifungal activity against 1 x 10^6 CFU Fonsecaea monophora CBS 269.37 infected in OF1 mouse assessed as increase in mouse survival at 25 mg/kg, po bid administered 1 day after infection for 7 days; format: functional, organism-based; design: dose 25 mg/kg
# Fonsecaea monophora [33] = test: Antifungal activity against 2 x 10^5 CFU Fonsecaea monophora CBS 117236 infected in OF1 mouse assessed as increase in mouse survival at 25 mg/kg, po bid administered 1 day after infection for 7 days; format: functional, organism-based; design: dose 25 mg/kg
# Fonsecaea monophora [34] = test: Antifungal activity against 2 x 10^5 CFU Fonsecaea monophora CBS 117236 infected in po dosed OF1 mouse assessed as reduction in fungal load in spleen at 25 mg/kg, po bid administered 1 day after infection for 7 days; format: functional, organism-based; design: dose 25 mg/kg
# Fonsecaea monophora [35] = test: Antifungal activity against 2 x 10^5 CFU Fonsecaea monophora CBS 117236 infected in po dosed OF1 mouse assessed as reduction in fungal load in kidney at 25 mg/kg, po bid administered 1 day after infection for 7 days; format: functional, organism-based; design: dose 25 mg/kg
# Fonsecaea monophora [36] = test: Antifungal activity against 2 x 10^5 CFU Fonsecaea monophora CBS 117236 infected in po dosed OF1 mouse assessed as reduction in fungal load in lung at 25 mg/kg, po bid administered 1 day after infection for 7 days; format: functional, organism-based; design: dose 25 mg/kg
# Fonsecaea monophora [37] = test: Antifungal activity against 1 x 10^6 CFU Fonsecaea monophora CBS 269.37 infected in po dosed OF1 mouse assessed as reduction in fungal load in spleen at 25 mg/kg, po bid administered 1 day after infection for 7 days; format: functional, organism-based; design: dose 25 mg/kg
# Fonsecaea monophora [38] = test: Antifungal activity against 1 x 10^6 CFU Fonsecaea monophora CBS 269.37 infected in po dosed OF1 mouse assessed as reduction in fungal load in kidney at 25 mg/kg, po bid administered 1 day after infection for 7 days; format: functional, organism-based; design: dose 25 mg/kg
# Fonsecaea monophora [39] = test: Antifungal activity against 1 x 10^6 CFU Fonsecaea monophora CBS 269.37 infected in po dosed OF1 mouse assessed as reduction in fungal load in lung at 25 mg/kg, po bid administered 1 day after infection for 7 days; format: functional, organism-based; design: dose 25 mg/kg
# [40] = Drug level in 1 x 10^6 CFU Fonsecaea monophora CBS 269.37 infected OF1 mouse serum at 50 mg/kg, po bid administered 1 day after infection measured on day 6 after 4 hrs of last treatment; format: ADME, organism-based; design: dose 50 mg/kg, route oral; conditions: read-out: Drug uptake
# [41] = Drug level in 1 x 10^6 CFU Fonsecaea monophora CBS 269.37 infected OF1 mouse brain at 50 mg/kg, po bid administered 1 day after infection measured on day 6 after 4 hrs of last treatment; format: ADME, organism-based; design: dose 50 mg/kg, route oral; conditions: read-out: Drug uptake
smiles,measurement,setting,value
C[C@@H]1[C@H](O)[C@@H](C)/C=C/C=C/C=C/C=C/C=C/C=C/C=C/[C@H](O[C@@H]2O[C@H](C)[C@@H](O)[C@H](N)[C@@H]2O)C[C@@H]2O[C@](O)(C[C@@H](O)C[C@@H](O)[C@H](O)CC[C@@H](O)C[C@@H](O)CC(=O)O[C@H]1C)C[C@H](O)[C@H]2C(=O)O [AMPHOTERICIN B],MIC,Fonsecaea monophora [1],1 µg/mL
same,MIC,Fonsecaea monophora [2],1 µg/mL
same,Activity,Fonsecaea monophora [3],Active
same,Activity,Fonsecaea monophora [4],Active
same,Activity,Fonsecaea monophora [5],Active
same,Activity,Fonsecaea monophora [6],Active
same,Activity,Fonsecaea monophora [7],Active
same,Activity,Fonsecaea monophora [8],Active
same,Activity,Fonsecaea monophora [9],Active
same,concentration at 4 h,[10],6450 ng/mL
CC[C@@H]([C@H](C)O)n1ncn(-c2ccc(N3CCN(c4ccc(OC[C@@H]5CO[C@@](Cn6cncn6)(c6ccc(F)cc6F)C5)cc4)CC3)cc2)c1=O [POSACONAZOLE],MIC,Fonsecaea monophora [1],0.25 µg/mL
same,MIC,Fonsecaea monophora [2],0.12 µg/mL
same,Activity,Fonsecaea monophora [11],Active
same,Activity,Fonsecaea monophora [12],Active
same,Activity,Fonsecaea monophora [13],Active
same,Activity,Fonsecaea monophora [14],Active
same,Activity,Fonsecaea monophora [15],Active
same,Activity,Fonsecaea monophora [16],Dose-dependent effect
same,Activity,Fonsecaea monophora [17],Dose-dependent effect
same,Activity,Fonsecaea monophora [18],Dose-dependent effect
same,Activity,Fonsecaea monophora [19],Dose-dependent effect
same,Activity,Fonsecaea monophora [20],Dose-dependent effect
same,Activity,Fonsecaea monophora [21],Dose-dependent effect
same,Activity,Fonsecaea monophora [22],Dose-dependent effect
same,Activity,Fonsecaea monophora [23],Dose-dependent effect
same,Activity,Fonsecaea monophora [24],Active
same,Activity,Fonsecaea monophora [25],Active
same,concentration at 4 h,[26],5170 ng/mL
same,concentration at 4 h,[27],6350 ng/mL
same,concentration at 4 h,[28],9720 ng/mL
same,concentration at 4 h,[29],2020 ng/g
same,concentration at 4 h,[30],2840 ng/g
same,concentration at 4 h,[31],6730 ng/g
CCC(C)n1ncn(-c2ccc(N3CCN(c4ccc(OCC5COC(Cn6cncn6)(c6ccc(Cl)cc6Cl)O5)cc4)CC3)cc2)c1=O (stereo not given) [ITRACONAZOLE],MIC,Fonsecaea monophora [1],0.5 µg/mL
same,MIC,Fonsecaea monophora [2],0.25 µg/mL
same,Activity,Fonsecaea monophora [32],inactive
same,Activity,Fonsecaea monophora [33],inactive
same,Activity,Fonsecaea monophora [34],Active
same,Activity,Fonsecaea monophora [35],Active
same,Activity,Fonsecaea monophora [36],Active
same,Activity,Fonsecaea monophora [37],Active
same,Activity,Fonsecaea monophora [38],Active
same,Activity,Fonsecaea monophora [39],Active
same,concentration at 4 h,[40],7320 ng/mL
same,concentration at 4 h,[41],6880 ng/g
